# Assay results as given in patent publication US10285959B2, “Combination therapies using HDAC inhibitors” (priority 2005, dated 2019).
# Key:
# [1] = test system: HCT116 colon cancer xenograft; assay: HCT116 colon cancer subcutaneous xenograft model; assay type: in vivo, nu/nu mice
# Experimental: The 5-FU dose was set at 15 mg/kg.
# HCT116 colon cancer xenograph. Daily i.p. treatments with PXD101 (morning) and 5-FU (afternoon). Mean/SEM, n=10(9).
# [2] = test system: EGFR protein in A431 cells; assay: Western blot of EGFR protein levels; assay type: cell-based, human; details: 24 hours treatment
# Excerpt: The blot was reprobed with an anti-actin antibody to control for lane loading.
# diverse tumor cell lines = assay: Proliferation of tumor cell lines; assay type: cell-based
# [3] = test system: P388 i.p. mouse leukemia tumour; assay: P388 mouse leukemia model, survival;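 note: female B6D1F1 mice implanted i.p. with P388 leukemia cells, Kaplan-Meier survival analysis, ILS% equals treated minus vehicle control median survival, divided by control median, times 100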
# Experimental: P388 mouse leukemia cells were injected intrapertoneally (IP) into B6D1F1 female mice. […] Kaplan-Meier survival distribution graphs are shown for each combination.
# The percentage Increased Life Span (ILS%) was calculated as the median survival (treatment group) minus median survival (vehicle control) divided by median survival (vehicle control) multiplied with 100:
# Calu-3 = assay: Growth inhibition/proliferation, PXD101 with Tarceva (CellTiter-Glo); assay type: cell-based, human; details: wtEGFR
# HCC-4006 = assay: Growth inhibition/proliferation, PXD101 with Tarceva; assay type: cell-based; details: mutant EGFR
# [4] = PXD101(60) mg/kg/treat i.p. daily for 5 days starting day 3
# [5] = PXD101(100) mg/kg/treat i.p. daily for 5 days starting day 3
# [6] = 5-FU(30) mg/kg/treat i.p. daily for 5 days starting day 3
smiles,measurement,setting,value
O=C(/C=C/c1cccc(S(=O)(=O)Nc2ccccc2)c1)NO [PXD-101],tumour growth inhibition,[1]; PXD-101 60 and 100 mg/kg q1d x5/week for 2 weeks,significant tumour growth inhibition
same,level of EGFR protein,[2],apparently decreases the level of EGFR protein
same,IC50,diverse tumor cell lines,0.08 to 2.43 µM
same,ILS % (Increased Life Span),[3]; [4],30.0%
same,"Survival time, Max",[3]; [4],14
same,"Survival time, Median survival",[3]; [4],13
same,"Survival time, Min",[3]; [4],12
same,ILS % (Increased Life Span),[3]; [5],20.0%
same,"Survival time, Max",[3]; [5],14
same,"Survival time, Median survival",[3]; [5],12
same,"Survival time, Min",[3]; [5],11
same,Cumulative Survival,"[3]; day 9, PXD101 (60)",1
same,Cumulative Survival,"[3]; day 9, PXD101 (100)",1
same,Cumulative Survival,"[3]; day 10, PXD101 (60)",1
same,Cumulative Survival,"[3]; day 10, PXD101 (100)",1
same,Cumulative Survival,"[3]; day 11, PXD101 (60)",1
same,Cumulative Survival,"[3]; day 11, PXD101 (100)",0.85
same,Cumulative Survival,"[3]; day 12, PXD101 (60)",0.70
same,Cumulative Survival,"[3]; day 12, PXD101 (100)",0.43
same,Cumulative Survival,"[3]; day 13, PXD101 (60)",0.15
same,Cumulative Survival,"[3]; day 13, PXD101 (100)",0.43
same,Cumulative Survival,"[3]; day 14, PXD101 (60)",0
same,Cumulative Survival,"[3]; day 14, PXD101 (100)",0.15
same,Cumulative Survival,"[3]; day 15, PXD101 (100)",0
C#Cc1cccc(Nc2ncnc3cc(OCCOC)c(OCCOC)cc23)c1 [Tarceva ®],responsiveness of cells to Tarceva,Calu-3,Calu-3 (wtEGFR; moderately responsive to Tarceva ®)
same,responsiveness of cells to Tarceva,HCC-4006,HCC-4006 (mutant EGFR; strongly responsive to Tarceva ®)
"Nc1nc(F)nc2c1ncn2[C@@H]1O[C@H](CO)[C@@H](O)[C@@H]1O [Fludarabin, Fludarabine]",Cumulative Survival,"[3]; day 8, Fludarabin (50)",1.00
same,Cumulative Survival,"[3]; day 9, Fludarabin (50)",0.85
same,Cumulative Survival,"[3]; day 10, Fludarabin (50)",0.55
same,Cumulative Survival,"[3]; day 11, Fludarabin (50)",0.40
same,Cumulative Survival,"[3]; day 12, Fludarabin (50)",0.40
same,Cumulative Survival,"[3]; day 13, Fludarabin (50)",0.40
same,Cumulative Survival,"[3]; day 14, Fludarabin (50)",0.40
same,Cumulative Survival,"[3]; day 15, Fludarabin (50)",0.30
same,Cumulative Survival,"[3]; day 16, Fludarabin (50)",0.30
same,Cumulative Survival,"[3]; day 17, Fludarabin (50)",0.15
same,Cumulative Survival,"[3]; day 18, Fludarabin (50)",0.15
same,Cumulative Survival,"[3]; day 19, Fludarabin (50)",0
"O=c1[nH]cc(F)c(=O)[nH]1 [5-FU, 5-fluorouracil]",tumour growth inhibition,[1]; 5-FU 15 mg/kg,ineffective
same,ILS % (Increased Life Span),[3]; [6],60.0%
same,"Survival time, Max",[3]; [6],18
same,"Survival time, Median survival",[3]; [6],16
same,"Survival time, Min",[3]; [6],15
same,Cumulative Survival,"[3]; day 9, 5-FU (30)",1
same,Cumulative Survival,"[3]; day 9, 5-FU (50)",1.00
same,Cumulative Survival,"[3]; day 10, 5-FU (30)",1
same,Cumulative Survival,"[3]; day 10, 5-FU (50)",0.55
same,Cumulative Survival,"[3]; day 11, 5-FU (30)",1
same,Cumulative Survival,"[3]; day 11, 5-FU (50)",0.15
same,Cumulative Survival,"[3]; day 12, 5-FU (30)",1
same,Cumulative Survival,"[3]; day 12, 5-FU (50)",0.15
same,Cumulative Survival,"[3]; day 13, 5-FU (30)",1
same,Cumulative Survival,"[3]; day 13, 5-FU (50)",0.15
same,Cumulative Survival,"[3]; day 14, 5-FU (30)",1
same,Cumulative Survival,"[3]; day 14, 5-FU (50)",0.15
same,Cumulative Survival,"[3]; day 15, 5-FU (30)",0.85
same,Cumulative Survival,"[3]; day 15, 5-FU (50)",0.15
same,Cumulative Survival,"[3]; day 16, 5-FU (30)",0.55
same,Cumulative Survival,"[3]; day 16, 5-FU (50)",0.15
same,Cumulative Survival,"[3]; day 17, 5-FU (30)",0.15
same,Cumulative Survival,"[3]; day 17, 5-FU (50)",0.15
same,Cumulative Survival,"[3]; day 18, 5-FU (30)",0
same,Cumulative Survival,"[3]; day 18, 5-FU (50)",0.15
same,Cumulative Survival,"[3]; day 19, 5-FU (50)",0.15
same,Cumulative Survival,"[3]; day 20, 5-FU (50)",0.15
same,Cumulative Survival,"[3]; day 21, 5-FU (50)",0.15
same,Cumulative Survival,"[3]; day 22, 5-FU (50)",0.15
same,Cumulative Survival,"[3]; day 23, 5-FU (50)",0.15
same,Cumulative Survival,"[3]; day 24, 5-FU (50)",0
"O=C1[O][Pt]2([NH][C@@H]3CCCC[C@H]3[NH]2)[O]C1=O [Oxali, Oxaliplatin]",Cumulative Survival,"[3]; day 9, Oxali (5)",0.45
same,Cumulative Survival,"[3]; day 10, Oxali (5)",0
